Assay [1] concerns the target T1, BaF3 TELJAK2 cells (BafT_J2) (Homo sapiens, UniProt O60674).
T1 construct: fused on or other part: TEL (ETV6) N-terminal part, coding nucleotides 1-487, serves as the oligomerising partner; It is fused through a Sal I site to the JAK2 kinase domain and expressed from pTRE2 in BaF3 cells bearing pTET-off; P41212 (Transcription factor ETV6)
As to the kind of experiment: Cellular screening, BaF3 TEL:JAK2 cells, Alamar Blue. It counts as cell-based. As to conditions: 40 hr, read-out: BafT_J2 IC50_nM. The method, boiled down:
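Tet-off BaF3 cells carrying a TEL (nt 1-487)–JAK2 kinase-domain fusion, grown factor-independently in DMEM with 10% Tet-approved FBS without WEHI 3B medium. Compounds were diluted to 20 μM in screening plates, and cells (50,000–200,000 cell/mL at 1.1×) were incubated 40 hr at 37 °C, 5% CO2. Alamar Blue was then added for 4-6 hours; read at 544 nm.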
(In general: The colour change of resazurin is a common sign of viable cells or microbes.)

Assay [2] deals with CTLL2. As to the kind of experiment: Cellular screening, CTLL2 cells, Alamar Blue. It counts as cell-based. The following applies: Mus musculus, CTLL-2, read-out: CTLL2 IC50_nM. The method, boiled down:
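Viability is read with Alamar Blue at 544 nm, the dye added for the final 4-6 hours. Compounds were incubated for 40 hr with CTLL2 cells taken from late-log-phase culture, at 37° C in 5% CO2.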

Assay [3] concerns the target T2, human JAK2 (Homo sapiens, UniProt O60674).
T2 construct: The kinase domain of human JAK2 was amplified; GST (N); made in house; host or cells: Sf9 insect cells (baculovirus)
As to the kind of experiment: Alphascreen tyrosine kinase enzyme assay, JAK2 kinase domain. It is filed as biochemical. As to conditions: read-out: JAK2 IC50_nM. The method, boiled down: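 JAK2 kinase domain expressed in baculovirus/Sf9 and glutathione-affinity purified. Compounds (final […]) pre-incubated 20 min with enzyme in 10 mM HEPES pH 7.5, MgCl2, NaCl, vanadate, 0.1% Tween 20.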
On the technique in general: Alpha assays give light when donor and acceptor beads are brought close together.

The record followed here is patent US8846704B2, “Thiopyrimidine-based compounds and uses thereof” (YM Biosciences Austraila Pty Ltd, priority 2007, dated 2014).

Each structure is given as a SMILES string.

T2 sequence (O60674 849-1124 limits assumed): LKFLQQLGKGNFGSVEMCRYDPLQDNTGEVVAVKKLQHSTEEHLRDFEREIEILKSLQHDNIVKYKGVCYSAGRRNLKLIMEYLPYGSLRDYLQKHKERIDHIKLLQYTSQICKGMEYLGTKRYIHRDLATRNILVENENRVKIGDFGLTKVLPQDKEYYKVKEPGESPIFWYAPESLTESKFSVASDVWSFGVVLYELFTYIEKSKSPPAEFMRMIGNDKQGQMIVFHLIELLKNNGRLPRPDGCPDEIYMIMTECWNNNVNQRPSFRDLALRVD
T1 sequence (O60674 whole entry, change not shown, the tested form may be a part): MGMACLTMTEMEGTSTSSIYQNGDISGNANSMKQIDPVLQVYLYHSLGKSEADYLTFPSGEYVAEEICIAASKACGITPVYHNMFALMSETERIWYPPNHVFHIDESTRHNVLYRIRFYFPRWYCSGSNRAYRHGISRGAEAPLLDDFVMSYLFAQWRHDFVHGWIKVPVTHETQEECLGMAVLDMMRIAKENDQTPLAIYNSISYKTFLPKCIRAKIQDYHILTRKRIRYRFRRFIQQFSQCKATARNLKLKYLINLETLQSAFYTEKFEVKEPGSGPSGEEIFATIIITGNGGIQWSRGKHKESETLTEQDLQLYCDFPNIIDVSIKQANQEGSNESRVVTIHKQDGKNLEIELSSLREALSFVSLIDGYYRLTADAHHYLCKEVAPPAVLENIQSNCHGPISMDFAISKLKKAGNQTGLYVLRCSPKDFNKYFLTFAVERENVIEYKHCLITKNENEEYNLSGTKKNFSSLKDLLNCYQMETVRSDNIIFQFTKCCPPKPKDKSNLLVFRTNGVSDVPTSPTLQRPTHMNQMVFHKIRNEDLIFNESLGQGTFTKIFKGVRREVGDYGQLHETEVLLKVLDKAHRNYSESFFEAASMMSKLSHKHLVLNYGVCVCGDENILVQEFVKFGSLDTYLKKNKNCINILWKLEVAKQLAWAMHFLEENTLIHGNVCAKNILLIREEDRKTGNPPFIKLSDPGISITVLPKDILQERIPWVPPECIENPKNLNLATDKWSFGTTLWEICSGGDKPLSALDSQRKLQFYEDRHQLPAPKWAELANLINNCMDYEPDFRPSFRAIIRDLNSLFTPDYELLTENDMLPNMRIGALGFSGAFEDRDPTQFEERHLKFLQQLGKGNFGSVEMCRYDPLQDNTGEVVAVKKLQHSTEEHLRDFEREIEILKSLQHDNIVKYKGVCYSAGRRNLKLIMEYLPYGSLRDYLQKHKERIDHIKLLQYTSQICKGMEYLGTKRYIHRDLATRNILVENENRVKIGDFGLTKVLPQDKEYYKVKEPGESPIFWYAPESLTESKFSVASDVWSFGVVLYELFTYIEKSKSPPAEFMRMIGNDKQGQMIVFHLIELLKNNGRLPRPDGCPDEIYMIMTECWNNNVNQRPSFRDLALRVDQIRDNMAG

For the compound `O=C(CCl)Nc1cccc(Sc2ccnc(Nc3ccc(N4CCOCC4)cc3)n2)c1` [Compound 332, 2-chloro-N-(3-(2-(4-morpholinophenylao)pyrimidin-4-ylthio)phenyl)acetamide], in assay [1], the GI50 is below 5 µM. For the same compound, the IC50 in assay [2] was below 5 µM; in assay [3], above 1 µM.
In the case of `O=C(/C=C/Cl)Nc1ccc(Sc2ccnc(Nc3ccc(N4CCOCC4)cc3)n2)cc1` [Compound 342, (E)-3-chloro-N-(4-(2-(4-morpholinophenylao)pyrimidin-4-ylthio)phenyl)acrylamide], the GI50 in assay [1] is above 20 µM. Further, the IC50 in assay [2] is below 20 µM; in assay [3] it was above 1 µM.
On to `Cc1cnc(Nc2ccc(N3CCOCC3)cc2)nc1Sc1ccc(NC(=O)/C=C/Cl)cc1` [Compound 343, (E)-3-chloro-N-(4-(5-methyl-2-(4-morpholinophenylao)pyrimidin-4-ylthio)phenyl)acrylamide], for which, in assay [1], the GI50 is below 20 µM. Also, the IC50 in assay [2] is below 5 µM; in assay [3], above 1 µM.
The corresponding values for `CCC(=O)Nc1ccc(Sc2nc(Nc3ccc(N4CCOCC4)cc3)ncc2Cl)cc1` [Compound 347, N-(4-(5-chloro-2-(4-morpholinophenylao)pyrimidin-4-ylthio)phenyl)propionamide] are above 20 µM, below 5 µM and above 1 µM.
The corresponding values for `C=CC(=O)Nc1ccc(Sc2ccnc(Nc3ccccc3)n2)cc1` [Compound 350, N-(4-(2-(phenylao)pyrimidin-4-ylthio)phenyl)acrylamide] are below 20 µM, below 20 µM and above 1 µM.
For `C=CC(=O)Nc1ccc(Sc2ccnc(Nc3ccc(S(N)(=O)=O)cc3)n2)cc1` [Compound 352, N-(4-(2-(4-sulfamoylphenylao)pyrimidin-4-ylthio)phenyl)acrylamide], in that order: below 20 µM, below 20 µM and above 1 µM.
For the compound `C=CC(=O)Nc1ccc(Sc2ccnc(Nc3ccc(Cl)cc3)n2)cc1` [Compound 353, N-(4-(2-(4-chlorophenylao)pyrimidin-4-ylthio)phenyl)acrylamide], the GI50 in assay [1] was below 20 µM. The results for the IC50 in assay [2] and in assay [3] were below 5 µM and above 1 µM, respectively.
The corresponding values for `C=CC(=O)Nc1ccc(Sc2ccnc(Nc3ccc(F)c(C#N)c3)n2)cc1` [Compound 354, N-(4-(2-(3-cyano-4-fluorophenylao)pyrimidin-4-ylthio)phenyl)acrylamide] are below 20 µM, below 20 µM and above 1 µM.
For `C=CC(=O)Nc1ccc(Sc2ccnc(Nc3cccc(N4CCCC4)c3)n2)cc1` [Compound 355, N-(4-(2-(3-(pyrrolidin-1-yl)phenylao)pyrimidin-4-ylthio)phenyl)acrylamide], in that order: below 20 µM, below 5 µM and above 1 µM.
The corresponding values for `C=CC(=O)Nc1ccc(Sc2ccnc(Nc3cccc(C(=O)OC)c3)n2)cc1` [Compound 356, methyl 3-(4-(4-acrylamidophenylthio)pyrimidin-2-ylao)benzoate] are below 20 µM, below 5 µM and above 1 µM.
Regarding `C=CC(=O)Nc1ccc(Sc2ccnc(Nc3cccc([N+](=O)[O-])c3)n2)cc1` [Compound 361, N-(4-(2-(3-nitrophenylao)pyrimidin-4-ylthio)phenyl)acrylamide], the GI50 in assay [1] is below 5 µM. Further, the IC50 in assay [2] was above 20 µM; in assay [3] it was above 1 µM.
The corresponding values for `C=CC(=O)Nc1ccc(Sc2ccnc(Nc3cccc(S(N)(=O)=O)c3)n2)cc1` [Compound 364, N-(4-(2-(3-sulfamoylphenylao)pyrimidin-4-ylthio)phenyl)acrylamide] are below 5 µM, below 1 µM and above 1 µM.
The corresponding values for `C=CC(=O)Nc1ccc(Sc2ccnc(Nc3cccc(S(=O)(=O)N4CCN(C)CC4)c3)n2)cc1` [Compound 365, N-(4-(2-(3-(4-methylpiperazin-1-ylsulfonyl)phenylao)pyrimidin-4-ylthio)phenyl)acrylamide] are below 20 µM, below 20 µM and above 1 µM.
For `C=CC(=O)Nc1ccc(Sc2ccnc(Nc3cccc(S(=O)(=O)NCc4ccccc4)c3)n2)cc1` [Compound 366, N-(4-(2-(3-(N-benzylsulfamoyl)phenylao)pyrimidin-4-ylthio)phenyl)acrylamide], in that order: below 20 µM, below 5 µM and above 1 µM.
Take `C=CC(=O)Nc1ccc(Sc2ccnc(Nc3ccc(S(=O)(=O)N4CCOCC4)cc3)n2)cc1` [Compound 367, N-(4-(2-(4-(morpholinosulfonyl)phenylao)pyrimidin-4-ylthio)phenyl)acrylamide]: in assay [1], the GI50 is below 20 µM. For the same compound, the figures for the IC50 in assay [2] and in assay [3] were below 20 µM and above 1 µM, respectively.
Consider `C=CC(=O)Nc1ccc(Sc2ccnc(Nc3ccc(S(=O)(=O)NCc4ccccc4)cc3)n2)cc1` [Compound 368, N-(4-(2-(4-(N-benzylsulfamoyl)phenylao)pyrimidin-4-ylthio)phenyl)acrylamide], for which, in assay [1], the GI50 was below 20 µM. In addition, the figures for the IC50 in assay [2] and in assay [3] were below 5 µM and above 1 µM, respectively.
The corresponding values for `C=CC(=O)Nc1ccc(Sc2ccnc(Nc3ccc(S(=O)(=O)N4CCN(C)CC4)cc3)n2)cc1` [Compound 370, N-(4-(2-(4-(4-methylpiperazin-1-ylsulfonyl)phenylao)pyrimidin-4-ylthio)phenyl)acrylamide] are below 20 µM, below 5 µM and above 1 µM.
Turning to `C=CC(=O)Nc1ccc(Sc2ccnc(Nc3ccc(S(=O)(=O)NCCC(C)C)cc3)n2)cc1` [Compound 371, N-(4-(2-(4-(N-isopentylsulfamoyl)phenylao)pyrimidin-4-ylthio)phenyl)acrylamide], the GI50 in assay [1] is below 20 µM. Further, the figures for the IC50 in assay [2] and in assay [3] were below 5 µM and above 1 µM, respectively.
The corresponding values for `C=CC(=O)Nc1ccc(Sc2ccnc(Nc3cccc(S(=O)(=O)N4CCOCC4)c3)n2)cc1` [Compound 372, N-(4-(2-(3-(morpholinosulfonyl)phenylao)pyrimidin-4-ylthio)phenyl)acrylamide] are below 5 µM, below 5 µM and above 1 µM.
For `C=CC(=O)Nc1ccc(Sc2ccnc(Nc3ccc(S(=O)(=O)N4CCOCC4)c(OC)c3)n2)cc1` [Compound 373, N-(4-(2-(3-methoxy-4-(morpholinosulfonyl)phenylao)pyrimidin-4-ylthio)phenyl)acrylamide], in that order: below 5 µM, below 5 µM and above 1 µM.
For `O=C(Nc1ccc(Sc2ccnc(Nc3ccc(N4CCOCC4)cc3)n2)cc1)C1CC1(F)Cl` (stereo not drawn) [Compound 378, 2-chloro-2-fluoro-N-(4-(2-(4-morpholinophenylao)pyrimidin-4-ylthio)phenyl)cyclopropanecarboxamide], in that order: below 1 µM, above 20 µM and above 1 µM.
Consider `Cc1cnc(Nc2ccc(N3CCOCC3)cc2)nc1Sc1ccc(NC(=O)/C(Br)=C\C(=O)O)cc1` [Compound 381, (E)-3-bromo-4-(4-(5-methyl-2-(4-morpholinophenylao)pyrimidin-4-ylthio)phenylao)-4-oxobut-2-enoic acid], for which the GI50 in assay [1] is above 20 µM. Moreover, the IC50 was below 20 µM in assay [2] and above 1 µM in assay [3].
As to `Cc1cnc(Nc2ccc(N3CCOCC3)cc2)nc1Sc1ccc(NC(=O)CCC(=O)O)cc1` [Compound 383, 4-(4-(5-methyl-2-(4-morpholinophenylao)pyrimidin-4-ylthio)phenylao)-4-oxobutanoic acid], in assay [1], the GI50 was below 20 µM. Also, the results for the IC50 in assay [2] and in assay [3] were below 20 µM and below 0.5 µM, respectively.
For the compound `Cc1cnc(Nc2ccc(N3CCOCC3)cc2)nc1Sc1ccc(N2C(=O)CCC2=O)cc1` [Compound 384, 1-(4-(5-methyl-2-(4-morpholinophenylao)pyrimidin-4-ylthio)phenyl)pyrrolidine-2,5-dione], the GI50 in assay [1] is above 20 µM. The IC50 in assay [2] was above 20 µM; in assay [3], below 0.5 µM.
With `CNC(=O)CCC(=O)Nc1ccc(Sc2nc(Nc3ccc(N4CCOCC4)cc3)ncc2C)cc1` [Compound 386, N1-methyl-N4-(4-(5-methyl-2-(4-morpholinophenylao)pyrimidin-4-ylthio)phenyl)succinamide], the GI50 in assay [1] is above 20 µM. Also, the IC50 in assay [2] is above 20 µM; in assay [3], above 1 µM.
Take `Cc1cnc(Nc2ccc(N3CCOCC3)cc2)nc1Sc1ccc(NC(=O)/C=C/C(=O)O)cc1` [Compound 387, (E)-4-(4-(5-methyl-2-(4-morpholinophenylao)pyrimidin-4-ylthio)phenylao)-4-oxobut-2-enoic acid]: the GI50 in assay [1] was above 20 µM. For the same compound, the IC50 in assay [2] was above 20 µM; in assay [3] it was below 1 µM.
As to `CCOC(=O)/C=C\C(=O)Nc1ccc(Sc2nc(Nc3ccc(N4CCOCC4)cc3)ncc2C)cc1` [Compound 388, (Z)-ethyl 4-(4-(5-methyl-2-(4-morpholinophenylao)pyrimidin-4-ylthio)phenylao)-4-oxobut-2-enoate], the GI50 in assay [1] is below 5 µM. For the same compound, the IC50 in assay [2] is below 5 µM; in assay [3] it was below 0.5 µM.
